Test results published in the NIST ThermoML archive (doi:10.1021/je050420+).
Numbers after ± are expanded uncertainties.

Columns and labels:
[1] = refractive index (Na D-line) (dimensionless); settings: 298.15 K; 101.33 kPa; Liquid; Standard Abbe refractometry
[2] = Liquid; for mass density / speed of sound: 298.15 K, 101.33 kPa
[3] = xn = mol fraction of the nth substance listed; settings: 298.15 K, 101 kPa, Liquid
[4] = Ebulliometric method (Recirculating still)

## CCC(C)CO (stereo not given) [2-methyl-1-butanol]
[1]
  refractive index: 1.40866 ± 0.00072
[2]
  mass density: 814.7 ± 0.6 kg/m3
  speed of sound: 1251.8 ± 1.8 m/s
[2]; [4]
  Normal boiling temperature: 128.78 ± 0.2 °C

## CCC(C)CO (stereo not given) [2-methyl-1-butanol] + CCOC(C)=O
[3]; x2 = 0.05
  mass density: 817.8 ± 0.6 kg/m3
[3]; x2 = 0.099
  mass density: 820.9 ± 0.6 kg/m3
[3]; x2 = 0.15
  mass density: 824.2 ± 0.5 kg/m3
[3]; x2 = 0.2
  mass density: 827.5 ± 0.5 kg/m3
[3]; x2 = 0.25
  mass density: 830.9 ± 0.5 kg/m3
[3]; x2 = 0.3
  mass density: 834.4 ± 0.5 kg/m3
[3]; x2 = 0.349
  mass density: 838 ± 0.5 kg/m3
[3]; x2 = 0.399
  mass density: 841.7 ± 0.5 kg/m3
[3]; x2 = 0.451
  mass density: 845.6 ± 0.5 kg/m3
[3]; x2 = 0.499
  mass density: 849.4 ± 0.5 kg/m3
[3]; x2 = 0.549
  mass density: 853.3 ± 0.5 kg/m3
[3]; x2 = 0.598
  mass density: 857.3 ± 0.5 kg/m3
[3]; x2 = 0.65
  mass density: 861.6 ± 0.5 kg/m3
[3]; x2 = 0.699
  mass density: 865.8 ± 0.5 kg/m3
[3]; x2 = 0.75
  mass density: 870.2 ± 0.5 kg/m3
[3]; x2 = 0.793
  mass density: 874.2 ± 0.5 kg/m3
[3]; x2 = 0.846
  mass density: 879.1 ± 0.5 kg/m3
[3]; x2 = 0.9
  mass density: 884.2 ± 0.5 kg/m3
[3]; x2 = 0.95
  mass density: 889.1 ± 0.4 kg/m3

## CC(C)CO [2-methyl-1-propanol]
[1]
  refractive index: 1.39366 ± 0.00073
[2]
  mass density: 797.8 ± 0.6 kg/m3
  speed of sound: 1186.4 ± 1.7 m/s
[2]; [4]
  Normal boiling temperature: 107.78 ± 0.2 °C

## CC(C)CO [2-methyl-1-propanol] + CCOC(C)=O
[3]; x2 = 0.049
  mass density: 802.3 ± 0.6 kg/m3
[3]; x2 = 0.101
  mass density: 806.8 ± 0.6 kg/m3
[3]; x2 = 0.153
  mass density: 811.5 ± 0.6 kg/m3
[3]; x2 = 0.202
  mass density: 816 ± 0.6 kg/m3
[3]; x2 = 0.251
  mass density: 820.6 ± 0.6 kg/m3
[3]; x2 = 0.3
  mass density: 825.2 ± 0.6 kg/m3
[3]; x2 = 0.35
  mass density: 829.9 ± 0.6 kg/m3
[3]; x2 = 0.401
  mass density: 834.7 ± 0.6 kg/m3
[3]; x2 = 0.451
  mass density: 839.5 ± 0.5 kg/m3
[3]; x2 = 0.501
  mass density: 844.3 ± 0.5 kg/m3
[3]; x2 = 0.55
  mass density: 849 ± 0.5 kg/m3
[3]; x2 = 0.6
  mass density: 853.8 ± 0.5 kg/m3
[3]; x2 = 0.65
  mass density: 858.8 ± 0.5 kg/m3
[3]; x2 = 0.7
  mass density: 863.7 ± 0.5 kg/m3
[3]; x2 = 0.751
  mass density: 868.9 ± 0.5 kg/m3
[3]; x2 = 0.801
  mass density: 873.8 ± 0.5 kg/m3
[3]; x2 = 0.85
  mass density: 878.7 ± 0.5 kg/m3
[3]; x2 = 0.9
  mass density: 883.8 ± 0.5 kg/m3
[3]; x2 = 0.95
  mass density: 888.9 ± 0.5 kg/m3

## CCOC(C)=O [ethyl acetate]
[1]
  refractive index: 1.36978 ± 0.00072
[2]
  mass density: 894.3 ± 0.2 kg/m3
  speed of sound: 1139.6 ± 1.6 m/s
  Normal boiling temperature: 77.00 ± 0.2 °C
